Experimental data from BindingDB's records for doi:10.1074/jbc.M110.120576 (Pharmaleads, 2010).

Biological target: EEF1AKMT4-ECE2 readthrough transcript protein (Homo sapiens, UniProt P0DPD8)
Assay: Enzymatic Assay
Excerpt: Inhibitory assay against ECE-2.

Sequence of EEF1AKMT4-ECE2 readthrough transcript protein (P0DPD8 whole entry): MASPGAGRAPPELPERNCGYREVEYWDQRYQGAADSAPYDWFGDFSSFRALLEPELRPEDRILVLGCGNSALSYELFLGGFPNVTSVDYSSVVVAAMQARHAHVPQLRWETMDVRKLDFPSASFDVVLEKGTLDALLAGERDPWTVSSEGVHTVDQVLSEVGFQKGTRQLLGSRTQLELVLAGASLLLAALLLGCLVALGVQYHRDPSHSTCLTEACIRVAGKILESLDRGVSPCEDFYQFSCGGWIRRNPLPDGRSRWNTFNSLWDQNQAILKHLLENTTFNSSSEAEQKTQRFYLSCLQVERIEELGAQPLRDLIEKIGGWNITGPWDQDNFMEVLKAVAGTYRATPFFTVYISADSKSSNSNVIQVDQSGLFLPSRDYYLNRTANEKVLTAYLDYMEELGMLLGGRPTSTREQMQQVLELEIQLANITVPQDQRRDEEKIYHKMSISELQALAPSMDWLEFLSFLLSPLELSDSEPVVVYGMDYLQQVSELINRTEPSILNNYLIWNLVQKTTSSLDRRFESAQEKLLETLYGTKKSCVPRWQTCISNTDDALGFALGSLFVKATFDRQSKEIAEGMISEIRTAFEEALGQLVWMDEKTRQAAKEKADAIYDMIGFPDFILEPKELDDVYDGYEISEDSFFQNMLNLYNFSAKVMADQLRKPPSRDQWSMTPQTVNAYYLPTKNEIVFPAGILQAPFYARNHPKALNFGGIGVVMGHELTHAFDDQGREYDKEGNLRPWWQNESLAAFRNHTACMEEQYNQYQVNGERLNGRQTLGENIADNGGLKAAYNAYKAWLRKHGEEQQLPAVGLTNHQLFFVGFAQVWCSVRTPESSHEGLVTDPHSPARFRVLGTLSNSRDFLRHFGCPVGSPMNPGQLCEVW

Structure (SMILES)	IC50 [µM]	Ki [µM]
O=C(N[C@@H](Cc1c[nH]c2ccccc12)C(=O)O)C(CS)C1CCc2cc(Br)ccc21 (stereo partly drawn) [(2S)-2-[2-(5-bromo-2,3-dihydro-1H-inden-1-yl)-3-sulfanylpropanamido]-3-(1H-indol-3-yl)propanoic acid, 1]	0.0434	0.0223
CC(C)C[C@H](NP(=O)(O)O[C@@H]1O[C@@H](C)[C@H](O)[C@@H](O)[C@H]1O)C(=O)N[C@@H](Cc1c[nH]c2ccccc12)C(=O)O [(S)-2-{(R)-2-[Hydroxy-((2R,3R,4R,5R,6S)-3,4,5-trihydroxy-6-methyl-tetrahydro-pyran-2-yloxy)-phosphorylamino]-4-methyl-pentanoylamino}-3-(1H-indol-3-yl)-propionic acid]	0.00233	0.0012
O=C(O)CC(=O)N[C@@H](CS)Cc1ccccc1 [Retrothiorphan]	> 10	> 10
C[C@H](NC(=O)[C@@H](CC(=O)NO)Cc1ccccc1)C(=O)O [Kelatorphan]	0.38	0.195
O=C(O)CNC(=O)[C@@H](CS)Cc1ccccc1 [2-(2-benzyl-3-sulfanylpropanamido)acetic acid]	> 100	> 100
C[C@H](CS)C(=O)N1CCC[C@H]1C(=O)O [(2S)-1-[(2S)-2-methyl-3-sulfanylpropanoyl]pyrrolidine-2-carboxylic acid]	> 100	> 100
O=C(O)[C@H](Cc1c[nH]c2ccccc12)NC(=O)[C@H](CS)C1CCc2ccccc21 (stereo partly drawn) [(2S)-2-[(2R)-2-(2,3-dihydro-1H-inden-1-yl)-3-sulfanylpropanamido]-3-(1H-indol-3-yl)propanoic acid, 2]	0.0151	0.0077
